From ChEMBL document CHEMBL5252606, “Isolation and Characterization of Anti-Mycobacterial Natural Products from a Petrosia sp. Marine Sponge” (J Nat Prod, 2023) come the findings set out here.

Values after ≈ are worked out from the molar mass of the structure shown. Active and inactive are the calls of the source. The rule behind the calls is not given here.

Data set [1] deals with Mycobacterium tuberculosis. As to the kind of experiment: Antitubercular activity against Mycobacterium tuberculosis H37Rv assessed as inhibition of bacterial growth at 25 ug/ml by alamar blue assay. The format is functional, organism-based. Conditions: dose 25.0 µg/ml. In general terms: The colour change of resazurin is a common sign of viable cells or microbes.
The test system of data set [2] is Mycobacterium tuberculosis. As to the kind of experiment: Antitubercular activity against Mycobacterium tuberculosis expressing luxCDABE operon assessed as inhibition of bacterial growth under hypoxic conditions by low oxygen recovery assay. The format is functional.
Data set [3] concerns Mycobacterium tuberculosis. In words: Antitubercular activity against Mycobacterium tuberculosis H37Rv assessed as inhibition of bacterial growth by alamar blue assay. The format is functional.
Data set [4] concerns MCF7. As to the kind of experiment: Cytotoxicity against human MCF7 cells. Type of data set: functional, cell-based.
Data set [5] relates to HeLa. As to the kind of experiment: Cytotoxicity against human HeLa cells. Type of data set: functional, cell-based.
Data set [6] concerns Mycobacteroides abscessus. In words: Antitubercular activity against Mycobacterium abscessus ATCC 19977 assessed as inhibition of bacterial growth incubated for 4 hrs by resazurin based fluorescence assay. The format is functional, organism-based.
The subject of data set [7] is A549. As to the kind of experiment: Cytotoxicity against human A549 cells. Type of data set: functional, cell-based.
Data set [8] concerns P388. As to the kind of experiment: Cytotoxicity against mouse P388 cells. Type of data set: functional, cell-based.
Data set [9] can be described thus: Cytotoxicity against African green monkey Vero cells assessed as inhibition of cell growth incubated for 3 days by resazurin based fluorescence assay. The format is toxicity. Conditions: African green monkey (Chlorocebus sabaeus).
Data set [10] has as its system Mycobacterium avium. As to the kind of experiment: Antitubercular activity against Mycobacterium avium ATCC 15769 assessed as inhibition of bacterial growth incubated for 24 hrs by resazurin based fluorescence assay. Type of data set: functional, organism-based.
Data set [11] concerns HCT-8. In words: Cytotoxicity against human HCT-8 cells. Type of data set: functional, cell-based.

`COc1ccc2c(c1)C[C@H]1[C@]3(C)CC[C@@H]4[C@]5(CCC[C@@]4(C)C(=O)OC5)[C@H]3CC[C@]1(C)O2`: the result in data set [1] was inactive.

As to `COc1ccc2c(c1)C[C@H]1[C@]3(C)CC[C@H]4[C@@]5(C)CCC[C@]4(CO[C@@H]5O)[C@H]3CC[C@]1(C)O2`, the result in [1] was inactive.

In the case of `NNC(=O)c1ccncc1` [ISONIAZID], the MIC in [2] is more than 128 µM; in [3] it was 0.2 µM (≈ 0.0274 µg/mL).

For `C#CC(O)/C=C/CCCCCCCCC/C=C\CCCCCCCCC/C=C/C(O)C#C` (configuration not stated), the figures for the MIC in [2] and in data set [3] were 1 µM (≈ 0.441 µg/mL) and 1.4 µM (≈ 0.617 µg/mL), respectively. The IC50 in data set [4], in data set [5], in [7], in data set [8] and in [11] was 200 nM throughout. Further, the outcome in data set [6] and in [10] was inactive. In addition, the half-inhibitory concentration (IC50) at 3 days in data set [9] worked out at 400 nM.

`COc1ccc2c(c1)C[C@H]1[C@]3(C)CC[C@H]4[C@@]5(C)CCC[C@]4(CO[C@H]5O)[C@H]3CC[C@]1(C)O2`: the outcome in data set [1] was inactive.

For the compound `O=[N+]([O-])c1cn2c(n1)OC[C@@H](OCc1ccc(OC(F)(F)F)cc1)C2` [PRETOMANID], the figures for the MIC in data set [2] and in [3] were 2 µM (≈ 0.719 µg/mL) and 0.2 µM (≈ 0.0719 µg/mL), respectively.

As to `COc1ccc2c(c1)C[C@H]1[C@]3(C)CC[C@@H]4[C@](C)(CCC[C@]4(C)C(=O)O)[C@H]3CC[C@]1(C)O2`, the outcome in data set [1] was inactive.

For `C[C@]12CCC[C@](C)(C=O)[C@@H]1CC[C@]1(C)[C@@H]2CC[C@]2(C)Oc3ccc(O)cc3C[C@@H]12`, the result in data set [1] was inactive.

Take `COc1nc2ccc(Br)cc2cc1[C@@H](c1ccccc1)[C@@](O)(CCN(C)C)c1cccc2ccccc12` [BEDAQUILINE]: the MIC is 0.1 µM (≈ 0.0556 µg/mL) in data set [2] and 0.03 µM (≈ 0.0167 µg/mL) in data set [3].

As to `CC(=O)NC[C@H]1CN(c2ccc(N3CCOCC3)c(F)c2)C(=O)O1` [LINEZOLID], the MIC in [2] turned out to be 1.7 µM (≈ 0.573 µg/mL); in data set [3], 1 µM (≈ 0.337 µg/mL).

Regarding `CCO[C@@H]1OC[C@]23CCC[C@]1(C)[C@@H]2CC[C@]1(C)[C@@H]3CC[C@]2(C)Oc3ccc(OC)cc3C[C@@H]12`, the result in data set [1] was inactive.

As for `CO[C@H]1/C=C/O[C@@]2(C)Oc3c(C)c(O)c4c(O)c(c(/C=N/N5CCN(C)CC5)c(O)c4c3C2=O)NC(=O)/C(C)=C\C=C\[C@H](C)[C@H](O)[C@@H](C)[C@@H](O)[C@@H](C)[C@H](OC(C)=O)[C@@H]1C` [RIFAMPIN], the MIC was 0.09 µM (≈ 0.0741 µg/mL) in [2] and 0.04 µM (≈ 0.0329 µg/mL) in [3].

Take `C[C@]12CCC[C@](C)(C(=O)O)[C@@H]1CC[C@]1(C)[C@@H]2CC[C@]2(C)Oc3ccc(O)cc3C[C@@H]12`: in data set [1], the outcome was inactive.

Usually MIC stands for the lowest concentration that inhibits growth of the organism. The IC50 is the concentration that gives 50% inhibition.
